Consider two substances from patent US7482008B1, “Human T cell reactive feline protein (TRFP) isolated from house dust and uses therefor” (Merck Patent GmbH, priority 1989, dated 2009).

Assay type in all cases: in vivo, mouse
Experiment [1] relates to Balb/c mice. Nature of the experiment: Oral rChain 1, IgG and IgE response after repeated challenge, protocol 5. The following applies: oral 250 μg days -7, -5, -2. The procedure: Two groups of five age-matched Balb/c were fed on days −7, −5 and −2 with 250 μg rChain 1 (Group 1) or PBS (Group 2). On day 0, the mice were challenged with 10 μg rChain 1 on alum administered i.p., and on days 47 and 78, the mice were again challenged with 25 μg rChain 1 on alum administered i.p. The antibody response was measured by ELISA (see below).
(§1) Subsequent incubations were for 1 hour at 37° C. The wells were washed with PBS containing 0.05% Tween 20 and blocked with 0.5% gelatin in PBS. Sera were diluted in PBS as noted in the individual assay and were incubated in triplicate on the washed plates. After incubation and washing, the bound mouse antibody was detected by incubation with biotinylated goat anti-mouse IgG (Southern Biotechnology Ass.). Streptavidin conjugated to horseradish peroxidase (Southern Biotechnology Associates) was added to detect antigen-bound biotinylated antibody complexes. 3,3′,5,5′-Tetramethylbenzidine peroxidase substrate (Kirkegaard & Perry Labs) was used according to directions supplied, and resulting OD (450 nm) values were determined using an ELISA reader (Bio-Tek model 310, Winooski, Vt.). […]
(§2) Antigen-bound IgE was detected similarly except using a biotinylated rat monoclonal antibody specific for mouse IgE (Baniyash et al. (1984) Eur. J. Immunol. 14:799-807). […]

The subject of experiment [2] is Balb/c mice. The experiment in a line: Oral rChain 1, antibody response ELISA, protocol 2. As to the method:
Four groups of five age-matched Balb/c 6- to 10-week-old female mice (The Jackson Laboratory, Bar Harbor, Me.) were fed on days −7, −5 and −2 with 250 μg cleaved, purified, recombinant TRFP Chain 1 (rChain) (Groups 1 and 3) or with PBS (Groups 2 and 4). On day 0, the mice in Groups 1 and 2 were challenged with an intraperitoneal (i.p.) injection of 10 μg rChain 1 in alum, while the mice in Groups 3 and 4 were challenged on day 0 with an i.p. injection of 100 μg rChain 1 in CFA. […]
as §1, with “Streptavidin conjugated to horseradish peroxidase (Southern Biotechnology Associates) was added to detect antigen-bound biotinylated antibody complexes.” left out
as §2

The subject of the next experiment is CD4+ T cells. The experiment in a line: Cytokine production of purified CD4+ T cells from peptide Y pre-injected mice. The following applies: CD4+ T cells from pre-injected mice compared to control CD4+ cells.
The test system of a further experiment is Fel d I primed mice. Nature of the experiment: Peptide Y s.c. in Fel d I primed mice, IL-2 production of lymph node cells. Particulars: injected subcutaneously up to fifty-six days earlier; compared to control mice.
In the next experiment the test system is mice primed to rch1. The experiment in a line: Duration of peptide inhibitory effects on T cell function in rCh1 primed mice. Particulars: FIG. 25. The procedure: Mice were injected with recombinant TRFP Chain 1 (rCh1) in Incomplete Freund's Adjuvant. Three months later all the mice were primed to rch1 as judged by their development of significant titers of anti-rch1 antibody.

The subject of a further experiment is mice. The experiment in a line: Specificity of peptide-induced unresponsiveness (peptide Y vs MI-05). Particulars: subcutaneous injection in saline.
Another experiment relates to BDF1 mice. The experiment in a line: Tolerization of mice with peptide s.c. or i.v., peptide-specific IL-2 production of lymph node cells (CTLL-2). The following applies: 300 μg in PBS day 0 and 5, intravenously and subcutaneously; challenge 100 μg in CFA. As to the method: Four groups of five BDF1 (C57BL/6J×DBA/2J) mice (females, 6-8 weeks of age), were injected either subcutaneously in a single dorsal site between the forelimbs or intravenously through one of the tail veins. […] The animals were sacrificed by cervical dislocation on day 20 and inguinal and popliteal nodes were removed and placed in rinsing buffer, cold RPMI 1640 containing 1% Fetal Bovine Serum (FBS). The nodes were rinsed with rinsing buffer and forced through a fine stainless steel mesh, using a glass pestal to suspend them in rinsing buffer. The suspended cells were rinsed two times by centrifugation at 1500 rpm for 10 minutes and resuspended with rinsing buffer. An aliquot of suspended cells from each animal was counted on a Coulter Counter Model ZB.
The 0.2 ml cultures were done in triplicate in flat bottom 96 well plates (Costar) at 37° C. and 5% CO2. After 24 hours, […] of the media from each well was placed in separate round bottom 96 well plates (Costar) and was frozen overnight at −20° C. to eliminate carryover of live cells. The supernatants were tested after thawing for their ability to support the growth of CTLL-2, an IL-2 dependent T cell clone (ATCC TIB#214). […] The ^3H-incorporation in each well was counted by a Betaplate Model 1205 scintillation counter. […]

Regarding “recombinant chain 1: recombinant TRFP chain 1 expressed in E. coli”, the “specific IgG and IgE responses after repeated challenge with rChain 1 in alum” value in the experiment with Balb/c mice [1] is “decreases specific IgG and IgE responses”. Besides, in the experiment with Balb/c mice [2] (92 days after challenge, compared to PBS), the “IgE binding to rChain 1” value is “less IgE binding to rChain 1”. For the same substance, in the experiment on Balb/c mice [2] (oral administration, up to 100 days after treatment), the “IgG response to rChain 1” value was “depressed level of IgG response”.

For the substance “peptide Y: amino acid residues 29-55 from chain 1 of TRFP (SEQ. ID. NO: 18) (KALPVVLENARILKNCVDAKMTEEDKE)”, the “reduction in the production of the cytokines (IL-2, IL-3 and IL-4)” value in the experiment with CD4+ T cells is given as “greater than 75%”. For the same substance, the “IL-2 production of lymph node cells” value in the experiment with Fel d I primed mice is reported as “decreased IL-2 production”. Moreover, the “duration of inhibitory effects of subcutaneous peptide injection on T cell function” value in the experiment with mice primed to rch1 is given as “up to 56 days”. In the experiment with mice, the “responses to MI-05” value is given as “did not affect responses to MI-05” and the “responsiveness to peptide Y” value was “decreased responsiveness to peptide Y”. In the experiment with BDF1 mice, the “specific IL-2 secretion of draining lymph node cells” value was “decreased specific IL-2 secretion”.
